Assays:
Rattus norvegicus [1] = experiment: Total drug recovery in bile duct-cannulated Sprague-Dawley rat at 5 mg/kg, iv administered for 30 mins during 0 to 168 hrs time interval by radio analysis; type: ADME, organism-based; set-up: dose 5 mg/kg, dosed compound name [14C]LY2090314, route intravenous; details: in vivo
[2] = Drug metabolism in Mrp2 knockout Sprague-Dawley rat urine at 5 mg/kg, iv administered for 30 mins; type: ADME, organism-based; set-up: dose 5 mg/kg, dosed compound name LY2090314, route intravenous; details: in vivo, 0.5 h
[3] = Drug metabolism in Mdr1a knockout Sprague-Dawley rat bile at 5 mg/kg, iv administered for 30 mins; type: ADME, organism-based; set-up: dose 5 mg/kg, dosed compound name LY2090314, route intravenous; details: in vivo, 0.5 h
[4] = Drug metabolism in Bcrp knockout Sprague-Dawley rat bile at 5 mg/kg, iv administered for 30 mins; type: ADME, organism-based; set-up: dose 5 mg/kg, dosed compound name LY2090314, route intravenous; details: in vivo, 0.5 h
[5] = Drug metabolism in Mrp2 knockout Sprague-Dawley rat bile at 5 mg/kg, iv administered for 30 mins; type: ADME, organism-based; set-up: dose 5 mg/kg, dosed compound name LY2090314, route intravenous; details: in vivo, 0.5 h
[6] = Drug recovery in bile duct-cannulated Sprague-Dawley rat assessed as radioactivity in bile during 0 to 12 hrs at 5 mg/kg, iv for 30 mins; type: ADME, organism-based; set-up: dose 5 mg/kg, dosed compound name [14C]LY2090314, route intravenous; details: in vivo
Plasma [7] = experiment: Drug recovery in beagle dog plasma assessed as radiochemical peak area at 5 mg/kg, iv administered for 30 mins after 0.5 hrs by radio analysis; type: ADME, organism-based, Canis lupus familiaris; set-up: dose 5 mg/kg, dosed compound name [14C]LY2090314, route intravenous; details: in vivo
[8] = Drug recovery in Sprague-Dawley rat urine at 5 mg/kg, iv administered for 30 mins during 0 to 168 hrs time interval by radio analysis; type: ADME, organism-based; set-up: dose 5 mg/kg, dosed compound name [14C]LY2090314, route intravenous; details: in vivo
[9] = Drug recovery in Sprague-Dawley rat carcass at 5 mg/kg, iv administered for 30 mins during 0 to 168 hrs time interval by radio analysis; type: ADME, organism-based; set-up: dose 5 mg/kg, dosed compound name [14C]LY2090314, route intravenous; details: in vivo
Canis familiaris [10] = experiment: Drug recovery in beagle dog cage at 5 mg/kg, iv administered for 30 mins during 0 to 168 hrs time interval by radio analysis; type: ADME, organism-based, Canis lupus familiaris; set-up: dose 5 mg/kg, dosed compound name [14C]LY2090314, route intravenous; details: in vivo
Canis familiaris [11] = experiment: Total drug recovery in beagle dog at 5 mg/kg, iv administered for 30 mins during 0 to 168 hrs time interval by radio analysis; type: ADME, organism-based, Canis lupus familiaris; set-up: dose 5 mg/kg, dosed compound name [14C]LY2090314, route intravenous; details: in vivo
[12] = Tmax in beagle dog at 5 mg/kg, iv administered for 30 mins; type: ADME, organism-based, Canis lupus familiaris; set-up: dose 5 mg/kg, dosed compound name [14C]LY2090314, route intravenous; details: in vivo
Canis familiaris [13] = experiment: Elimination half life in beagle dog assessed as total radioactivity at 5 mg/kg, iv administered for 30 mins; type: ADME, organism-based, Canis lupus familiaris; set-up: dose 5 mg/kg, dosed compound name [14C]LY2090314, route intravenous; details: in vivo, 0.5 h
Rattus norvegicus [14] = experiment: AUC (0 to infinity) in Sprague-Dawley rat assessed as total radioactivity at 5 mg/kg, iv administered for 30 mins; type: ADME, organism-based, Plasma; set-up: dose 5 mg/kg, dosed compound name [14C]LY2090314, route intravenous, time infinity; details: in vivo, 0.5 h
Rattus norvegicus [15] = experiment: Tmax in Sprague-Dawley rat assessed as total radioactivity at 5 mg/kg, iv administered for 30 mins; type: ADME, organism-based; set-up: dose 5 mg/kg, dosed compound name [14C]LY2090314, route intravenous; details: in vivo, 0.5 h
Rattus norvegicus [16] = experiment: Volume of distribution at steady state in Sprague-Dawley rat assessed as total radioactivity at 5 mg/kg, iv administered for 30 mins; type: ADME, organism-based; set-up: dose 5 mg/kg, dosed compound name [14C]LY2090314, route intravenous; details: in vivo, 0.5 h
[17] = Cmax in Sprague-Dawley rat at 5 mg/kg, iv administered for 30 mins; type: ADME, organism-based; set-up: dose 5 mg/kg, dosed compound name [14C]LY2090314, route intravenous; details: in vivo
[18] = Clearance in Sprague-Dawley rat at 5 mg/kg, iv administered for 30 mins; type: ADME, organism-based; set-up: dose 5 mg/kg, dosed compound name [14C]LY2090314, route intravenous; details: in vivo
[19] = Drug recovery in beagle dog urine at 5 mg/kg, iv administered for 30 mins during 0 to 24 hrs time interval by radio analysis; type: ADME, organism-based, Canis lupus familiaris; set-up: dose 5 mg/kg, dosed compound name [14C]LY2090314, route intravenous; details: in vivo
Plasma [20] = experiment: Plasma concentration in Sprague-Dawley rat at 5 mg/kg, iv administered for 30 mins; type: ADME, organism-based; set-up: dose 5 mg/kg, dosed compound name [14C]LY2090314, route intravenous; details: in vivo, 0.5 h
[21] = Drug recovery in bile duct-cannulated Sprague-Dawley rat assessed as radioactivity in feces during 0 to 24 hrs at 5 mg/kg, iv administered for 30 mins relative to dosed radioactivity; type: ADME, organism-based; set-up: dose 5 mg/kg, dosed compound name [14C]LY2090314, route intravenous; details: in vivo
Plasma [22] = experiment: Drug metabolism in Mdr1a knockout Sprague-Dawley rat plasma at 5 mg/kg, iv administered for 30 mins; type: ADME, organism-based; set-up: dose 5 mg/kg, dosed compound name LY2090314, route intravenous; details: in vivo, 0.5 h
Plasma [23] = experiment: Drug metabolism in Bcrp knockout Sprague-Dawley rat plasma at 5 mg/kg, iv administered for 30 mins; type: ADME, organism-based; set-up: dose 5 mg/kg, dosed compound name LY2090314, route intravenous; details: in vivo, 0.5 h
Plasma [24] = experiment: Drug metabolism in Mrp2 knockout Sprague-Dawley rat plasma at 5 mg/kg, iv administered for 30 mins; type: ADME, organism-based; set-up: dose 5 mg/kg, dosed compound name LY2090314, route intravenous; details: in vivo, 0.5 h
[25] = Drug metabolism in Bcrp knockout Sprague-Dawley rat urine at 5 mg/kg, iv administered for 30 mins; type: ADME, organism-based; set-up: dose 5 mg/kg, dosed compound name LY2090314, route intravenous; details: in vivo, 0.5 h
[26] = Cmax in cancer patient at 80 mg for 60 mins treated 1/1 cycle/day; type: ADME, organism-based; set-up: dose 80 mg, dosed compound name LY2090314; details: human, in vivo
[27] = Cmax in cancer patient at 120 mg for 60 mins treated 1/8 cycle/day; type: ADME, organism-based; set-up: dose 120 mg, dosed compound name LY2090314; details: human, in vivo

For `O=C1NC(=O)C(c2cnc3ccccn23)=C1c1cn2c3c(cc(F)cc13)CN(C(=O)N1CCCCC1)CC2` [LY-2090314], the Radiolabel recovery (Rattus norvegicus [1]) was 94.9%, the Drug metabolism [2] was “metabolite_detected” and the Drug metabolism [3] was “metabolite_detected”. The Drug metabolism [4] was “metabolite_detected”, the Drug metabolism [5] was “metabolite_detected” and the Radiolabel recovery [6] was 1.78%. The Radiolabel recovery (Plasma [7]) was 82.76%, the Radiolabel recovery [8] was 0.8% and the Radiolabel recovery [9] was 0.07%. It also gave a Radiolabel recovery (Canis familiaris [10]) of 3.22%, a Radiolabel recovery (Canis familiaris [11]) of 93% and a Tmax [12] of 30 min. For the same compound, the “beta t1/2” value (Canis familiaris [13]) was 73.6 h, the AUC (Rattus norvegicus [14]) was 1790 ng·h/mL and the Tmax (Rattus norvegicus [15]) was 30 min. It also gave a Vdss (Rattus norvegicus [16]) of 4.489 L/kg, a Cmax [17] of 1680 ng/mL and a clearance [18] of 57.5 mL/min/kg. For the same compound, the Radiolabel recovery [19] was 19.8%, the Compound recovery (Plasma [20]) was 70.4% and the Radiolabel recovery [21] was 6.75%. For the same compound, the Drug metabolism (Plasma [22]) was “metabolite_not_detected”, the Drug metabolism (Plasma [23]) was “metabolite_not_detected” and the Drug metabolism (Plasma [24]) was “metabolite_not_detected”. For the same compound, the Drug metabolism [25] was “metabolite_detected”, the Cmax [26] was 898 ng/mL and the Cmax [27] was 768 ng/mL.

Reference: ChEMBL document CHEMBL3526091, “Pharmacokinetics, metabolism, and excretion of the glycogen synthase kinase-3 inhibitor LY2090314 in rats, dogs, and humans: a case study in rapid clearance by extensive metabolism with low circulating metabolite exposure” (Drug Metab Dispos, 2013)
